“Also recorded” adds a separate entry of the source.
Assays:
RyR1 = biological target: T1, RyR1 (Oryctolagus cuniculus, UniProt P11716); assay: Washout (reversibility/avidity) single channel experiments, RyR1; type: biochemical, New Zealand white rabbit (skeletal SR)
T1 construct: skeletal SR vesicles were isolated from the back and leg muscles of mature female New Zealand white rabbits; from tissue; host or cells: rabbit back and leg skeletal muscle, sarcoplasmic reticulum vesicles
Method: Cardiac SR was prepared from mature female crossbred sheep hearts, and skeletal SR vesicles were isolated from the back and leg muscles of mature female New Zealand white rabbits[29],[54] with approval from the ANU Animal Experiment Ethics Committee Protocol Number A2015/35. […] Solutions for vesicle incorporation contained (mM): cis 230 caesium methanesulfonate (CsMS); 20 CsCl; 1 CaCl2 and 10 […] (TES) pH 7.4 and trans 30 CsMS; 20 CsCl; 1 CaCl2 10 TES; pH 7.4. SR vesicles routinely incorporated with the cytoplasmic surface of the SR and RyR facing the cis chamber. Following incorporation, 200 mM CsMS was added to the trans solution and the cis solution exchanged with recording solution containing (mM): 230 CsMS; 20 CsCl; 0.001 CaCl2;10 TES and pH 7.4, with [Ca^2+] set by a [BAPTA] determined using a Ca^2+ electrode. […] Electrophysiology experiments were analysed using Channel 2 (P.W. Gage, M. Smith, Australian National University) and Channel 3 (N.W. Laver, University of Newcastle, Australia) software, available from the authors upon request. […] Following most incorporation events, a single channel only was active in the bilayer and channel open probability (Po), mean open time (To), mean closed time (Tc) and open event frequency (Fo) were measured. […] In all experiments control channel activity was recorded for 3 to 5 min before exposure to the test compound. […]

NaV1.7 = assay: FLIPR Ca2+ assay, inhibition of endogenous NaV1.7; type: cell-based, human; conditions: for Ca2+ response relative to control response: 3 µM Xt3a pre-treatment, veratridine 4 μM/OD1 300 nM, over 300 s
Method: SH-SY5Y human neuroblastoma cells (European Collection of Authenticated Cell Culture, Sigma Aldrich, 94030304-1VL) were cultured in RPMI media (ThermoFisher Scientific, Scoresby, Australia) supplemented with 15% foetal bovine serum and L-glutamine (1 mM) and passaged at approximately 80% confluency with TrypLE Express (Thermo Fisher, Australia). For fluorescence imaging, cells were plated on CellBIND (Corning) 384-well black-walled imaging plates at a density of 20,000–30,000 cells/well in complete media and cultured for 48 h at 37 °C/5% CO2.
Briefly, SH-SY5Y cells were loaded with Calcium 4 no-wash dye (Molecular Devices) diluted in physiological salt solution (composition in mM: NaCl 140, D-glucose 11.5, KCl 5.9, MgCl2 1.4, NaH2PO4 1.2, NaHCO3 5, CaCl2 1.8, HEPES 10) for 30 min at 37 °C. A two-addition FLIPR^Tetra (Molecular Devices) protocol using the following settings was used to measure fluorescence responses: excitation 470–495 nm; emission 515–575 nm; excitation intensity 80%; excitation duration 0.8 s; gain 140; read interval 1/s; read number 300/addition. Responses mediated via endogenously expressed ion channels were elicited by addition of: choline (30 μM)/PNU-120596 (10 μM) for α7 nAChR-mediated responses; nicotine (30 μM) for α3β2/α3β4 nAChR-mediated responses; KCl (90 mM)/CaCl2 (5 mM) for CaV1.3-mediated responses; KCl (90 mM)/CaCl2 (5 mM) + nifedipine (10 μM) for CaV2.2-mediated responses; vertridine (70 μM) for NaV1.2-mediated responses; and veratridine (4 μM)/OD1 (300 nM) for NaV1.7-mediated responses. Raw fluorescence readings were converted to response over baseline using the analysis tool Screenworks 3.1.1.4 (Molecular Devices) and were expressed relative to the maximum increase in fluorescence of control responses and plotted using GraphPad Prism 9.3.1.
In the cell-based FLIPR assays statistical analysis was performed using GraphPad Prism 9.3.1. Statistical significance was defined as p < 0.05, and determined by one-sample t-test assessing difference to the control value of 100%. In α7 nAChR, α3-containing nAChR, CaV1.3, CaV2.2, NaV1.2 and NaV1.7 channels (Supplementary Fig. 5B), with distribution (t) and degrees of freedom (df) being: t = 0.9683, df = 2 (α7); t = 1.338, df = 2 (α3); t = 1.775, df = 2 (NaV1.2); t = 1.478

T1 sequence (P11716 whole entry): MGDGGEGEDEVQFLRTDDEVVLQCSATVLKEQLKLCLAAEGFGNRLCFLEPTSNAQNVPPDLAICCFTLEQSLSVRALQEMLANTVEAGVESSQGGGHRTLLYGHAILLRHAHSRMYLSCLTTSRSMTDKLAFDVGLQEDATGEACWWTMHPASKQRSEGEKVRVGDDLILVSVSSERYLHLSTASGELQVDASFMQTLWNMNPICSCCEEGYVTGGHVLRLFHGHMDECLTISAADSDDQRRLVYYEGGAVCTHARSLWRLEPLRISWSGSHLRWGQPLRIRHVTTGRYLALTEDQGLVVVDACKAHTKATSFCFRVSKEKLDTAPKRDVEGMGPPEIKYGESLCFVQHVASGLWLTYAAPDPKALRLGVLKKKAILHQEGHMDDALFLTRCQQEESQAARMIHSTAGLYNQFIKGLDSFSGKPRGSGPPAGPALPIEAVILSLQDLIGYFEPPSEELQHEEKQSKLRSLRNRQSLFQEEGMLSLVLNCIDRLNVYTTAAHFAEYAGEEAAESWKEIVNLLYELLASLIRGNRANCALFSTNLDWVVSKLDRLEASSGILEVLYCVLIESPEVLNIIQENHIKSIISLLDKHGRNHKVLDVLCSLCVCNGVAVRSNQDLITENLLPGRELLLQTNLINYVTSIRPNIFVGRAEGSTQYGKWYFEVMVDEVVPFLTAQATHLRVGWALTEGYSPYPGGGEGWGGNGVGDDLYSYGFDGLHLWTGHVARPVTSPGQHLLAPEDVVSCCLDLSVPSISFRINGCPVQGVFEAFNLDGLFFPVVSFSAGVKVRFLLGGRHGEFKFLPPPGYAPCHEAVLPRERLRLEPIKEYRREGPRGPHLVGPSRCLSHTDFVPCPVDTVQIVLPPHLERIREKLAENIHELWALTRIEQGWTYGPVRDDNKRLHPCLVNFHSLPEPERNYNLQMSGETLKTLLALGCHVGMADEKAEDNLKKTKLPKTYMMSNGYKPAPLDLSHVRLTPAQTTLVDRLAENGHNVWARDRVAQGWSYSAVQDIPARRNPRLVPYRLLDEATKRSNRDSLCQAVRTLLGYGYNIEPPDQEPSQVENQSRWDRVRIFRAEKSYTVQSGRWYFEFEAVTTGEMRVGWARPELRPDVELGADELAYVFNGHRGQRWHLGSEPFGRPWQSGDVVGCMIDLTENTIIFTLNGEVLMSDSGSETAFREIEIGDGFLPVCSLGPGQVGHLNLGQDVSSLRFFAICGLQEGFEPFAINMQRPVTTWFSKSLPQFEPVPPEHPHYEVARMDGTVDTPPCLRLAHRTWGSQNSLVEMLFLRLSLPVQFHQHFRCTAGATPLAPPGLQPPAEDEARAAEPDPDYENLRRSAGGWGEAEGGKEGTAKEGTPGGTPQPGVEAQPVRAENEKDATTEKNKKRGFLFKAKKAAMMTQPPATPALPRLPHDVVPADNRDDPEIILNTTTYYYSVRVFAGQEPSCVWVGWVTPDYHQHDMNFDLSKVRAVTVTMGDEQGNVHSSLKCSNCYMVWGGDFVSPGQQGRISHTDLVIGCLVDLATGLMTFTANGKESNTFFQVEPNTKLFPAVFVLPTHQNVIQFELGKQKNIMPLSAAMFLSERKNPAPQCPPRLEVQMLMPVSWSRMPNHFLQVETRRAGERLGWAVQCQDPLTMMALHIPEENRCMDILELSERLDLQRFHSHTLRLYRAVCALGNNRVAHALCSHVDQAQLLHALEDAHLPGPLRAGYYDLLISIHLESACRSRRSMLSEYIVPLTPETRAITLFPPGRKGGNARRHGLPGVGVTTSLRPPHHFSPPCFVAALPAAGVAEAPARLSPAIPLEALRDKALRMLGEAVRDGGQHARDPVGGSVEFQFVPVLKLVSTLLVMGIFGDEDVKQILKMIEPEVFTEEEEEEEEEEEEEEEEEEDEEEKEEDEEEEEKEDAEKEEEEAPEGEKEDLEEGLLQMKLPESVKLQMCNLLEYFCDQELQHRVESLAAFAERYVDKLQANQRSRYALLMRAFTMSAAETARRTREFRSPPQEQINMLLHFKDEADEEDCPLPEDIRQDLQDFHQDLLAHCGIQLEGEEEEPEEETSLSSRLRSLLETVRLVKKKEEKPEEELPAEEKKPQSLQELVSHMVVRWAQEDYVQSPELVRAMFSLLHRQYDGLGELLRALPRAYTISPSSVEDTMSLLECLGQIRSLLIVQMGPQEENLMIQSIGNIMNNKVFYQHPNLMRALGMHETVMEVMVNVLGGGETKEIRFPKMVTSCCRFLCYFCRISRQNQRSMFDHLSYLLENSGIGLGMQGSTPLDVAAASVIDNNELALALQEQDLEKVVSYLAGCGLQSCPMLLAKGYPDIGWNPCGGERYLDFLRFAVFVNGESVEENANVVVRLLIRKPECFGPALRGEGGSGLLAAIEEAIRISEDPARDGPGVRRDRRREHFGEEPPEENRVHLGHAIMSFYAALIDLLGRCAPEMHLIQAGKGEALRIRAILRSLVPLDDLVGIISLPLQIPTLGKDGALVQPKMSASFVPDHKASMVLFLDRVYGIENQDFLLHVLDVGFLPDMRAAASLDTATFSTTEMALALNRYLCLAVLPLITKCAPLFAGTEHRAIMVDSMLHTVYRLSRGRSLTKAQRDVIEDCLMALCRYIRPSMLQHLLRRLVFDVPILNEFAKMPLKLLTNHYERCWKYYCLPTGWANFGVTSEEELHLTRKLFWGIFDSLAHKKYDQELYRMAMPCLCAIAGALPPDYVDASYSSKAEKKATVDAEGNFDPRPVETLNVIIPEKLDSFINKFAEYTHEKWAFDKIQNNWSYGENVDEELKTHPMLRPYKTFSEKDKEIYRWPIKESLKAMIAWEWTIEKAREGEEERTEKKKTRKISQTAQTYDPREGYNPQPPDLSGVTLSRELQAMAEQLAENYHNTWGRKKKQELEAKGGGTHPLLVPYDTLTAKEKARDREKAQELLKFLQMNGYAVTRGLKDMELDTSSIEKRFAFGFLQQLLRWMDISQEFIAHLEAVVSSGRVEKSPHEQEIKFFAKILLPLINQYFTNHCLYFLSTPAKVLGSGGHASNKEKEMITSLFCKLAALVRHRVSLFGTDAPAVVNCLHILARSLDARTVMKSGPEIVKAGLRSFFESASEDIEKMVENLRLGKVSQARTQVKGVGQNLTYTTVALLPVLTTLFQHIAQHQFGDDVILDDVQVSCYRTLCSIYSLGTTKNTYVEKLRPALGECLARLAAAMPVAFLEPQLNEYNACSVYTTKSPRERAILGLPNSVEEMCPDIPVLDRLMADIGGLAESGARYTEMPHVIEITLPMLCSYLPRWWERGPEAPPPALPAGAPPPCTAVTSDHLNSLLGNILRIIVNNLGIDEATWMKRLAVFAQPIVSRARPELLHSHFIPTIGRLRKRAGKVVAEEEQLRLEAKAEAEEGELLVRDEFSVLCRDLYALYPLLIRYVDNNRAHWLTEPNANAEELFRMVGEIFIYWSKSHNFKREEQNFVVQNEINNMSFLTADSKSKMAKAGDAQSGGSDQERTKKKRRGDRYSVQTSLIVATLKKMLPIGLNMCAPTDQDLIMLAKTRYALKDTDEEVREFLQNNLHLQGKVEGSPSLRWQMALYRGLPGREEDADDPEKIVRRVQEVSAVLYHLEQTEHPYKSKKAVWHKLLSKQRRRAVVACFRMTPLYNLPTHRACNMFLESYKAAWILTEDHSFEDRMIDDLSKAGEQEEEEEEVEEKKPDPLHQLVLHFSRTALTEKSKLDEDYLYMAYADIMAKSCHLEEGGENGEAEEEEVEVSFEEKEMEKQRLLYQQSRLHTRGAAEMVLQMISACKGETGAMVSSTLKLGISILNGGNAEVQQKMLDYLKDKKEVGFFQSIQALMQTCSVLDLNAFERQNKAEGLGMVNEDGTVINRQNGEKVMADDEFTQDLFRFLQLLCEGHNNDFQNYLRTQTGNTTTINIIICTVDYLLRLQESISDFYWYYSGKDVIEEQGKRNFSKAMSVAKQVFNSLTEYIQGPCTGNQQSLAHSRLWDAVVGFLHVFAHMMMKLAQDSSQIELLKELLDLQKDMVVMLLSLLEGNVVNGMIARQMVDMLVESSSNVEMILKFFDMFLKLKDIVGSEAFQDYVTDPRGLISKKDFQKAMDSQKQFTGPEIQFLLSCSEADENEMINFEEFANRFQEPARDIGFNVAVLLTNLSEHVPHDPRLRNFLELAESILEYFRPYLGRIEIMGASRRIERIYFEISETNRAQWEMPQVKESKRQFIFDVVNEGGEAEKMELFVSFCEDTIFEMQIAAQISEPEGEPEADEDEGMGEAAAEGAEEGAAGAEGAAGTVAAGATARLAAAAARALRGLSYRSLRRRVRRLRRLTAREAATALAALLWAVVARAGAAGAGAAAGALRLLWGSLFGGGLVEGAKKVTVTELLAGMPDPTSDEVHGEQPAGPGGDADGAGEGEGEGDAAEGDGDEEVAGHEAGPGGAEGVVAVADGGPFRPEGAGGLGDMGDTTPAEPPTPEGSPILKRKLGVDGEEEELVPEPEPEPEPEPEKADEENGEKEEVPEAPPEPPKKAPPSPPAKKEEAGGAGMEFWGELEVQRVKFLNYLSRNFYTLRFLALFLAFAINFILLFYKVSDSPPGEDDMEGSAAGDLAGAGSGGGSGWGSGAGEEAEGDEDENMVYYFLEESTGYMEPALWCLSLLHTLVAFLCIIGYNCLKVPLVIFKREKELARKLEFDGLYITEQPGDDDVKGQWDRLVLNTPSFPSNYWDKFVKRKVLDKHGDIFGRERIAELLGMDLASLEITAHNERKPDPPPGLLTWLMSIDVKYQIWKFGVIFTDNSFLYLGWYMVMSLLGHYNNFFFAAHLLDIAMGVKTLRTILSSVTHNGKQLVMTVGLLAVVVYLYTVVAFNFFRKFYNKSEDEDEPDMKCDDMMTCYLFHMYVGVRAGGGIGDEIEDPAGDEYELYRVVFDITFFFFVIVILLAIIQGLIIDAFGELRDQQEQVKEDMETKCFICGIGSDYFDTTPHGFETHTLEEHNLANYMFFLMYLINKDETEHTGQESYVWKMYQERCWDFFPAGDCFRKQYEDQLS

φ-Xibalbin3-Xt3a
reversibility on washout (RyR1; 100 pM, 10 nM and 1 μM, early (2 to 3 min) and late (15 to 23 min) after washout): no significant washout of Xt3a effect was observed; also recorded: persistent activity after washout in our single-channel recordings for as long as the bilayers lasted | sub-state activity during washout (RyR1; maintained for as long as the bilayer lasted): sub-state activity increased during the washout period | Ca2+ response relative to control response (NaV1.7; replicate 1): 99.4493% | Ca2+ response relative to control response (NaV1.7; replicate 2): 100.583% | Ca2+ response relative to control response (NaV1.7; replicate 3): 102.164% | inhibition of Ca2+ responses (NaV1.7; Xt3a 3 µM): did not inhibit Ca^2+ responses
